*1 amine or outer side, *2 acyl side, *3 side chain or, on linkers, in order; H or OH if unused. Where a SMILES comes first, the peptide text is derived from it. [ ]: non-standard residue; d: D form. dAla(ψthiazole) = C[C@@H](N[*:1])c1nc(C(=O)[*:2])cs1; Trp(4-OMe) = COc1cccc2[nH]cc(C[C@H](N)C(=O)O)c12; dAbu = CC[C@@H](N)C(=O)O; Dha = C=C(N)C(=O)O; Sar = CNCC(=O)O
Assays:
B. multivorans = test: Broth microdilution susceptibility to argyrin B, B. multivorans strains; format: cell-based
yeast (BY4741, BYΔ8) = test: Yeast susceptibility determination, wild-type and BYΔ8; format: cell-based, S. cerevisiae; conditions: for Activity against yeast (in words): rich medium with glucose
Description: Yeast strains used in this study are BY4741 [32] and strain BYΔ8, derived from BY4741 but deleted for eight genes involved in drug resistance (efflux pumps: snq2, pdr5, yor1; transcription factors: pdr1, pdr2, pdr3, yap1, yrm1). […] Starting OD600 was 0.1, total volume per well 120 µl. Plates were incubated at 30°C with 770 RPM orbital shaking.

[1] = tested on: efflux-defective yeast strain (BYΔ8); test: Yeast colony formation on ethanol/glycerol medium; format: cell-based, S. cerevisiae; conditions: 0.1 µM argyrin B
Description: Strain BYΔ8 was incubated in 2.5% ethylmethanesulfonate until only 50% of the cells formed colonies. […] Amplifying the mutated MEF1 gene and transforming it into non-mutagenized BYΔ8 cells validated identified mutations in MEF1.

[2] = tested on: recombinant human mEF-G1 S494F; test: Biacore binding, human mEF-G1 S494F; conditions: 10, 20, 40 µM, HBS-P+ pH 7.4, 4% DMSO
Text: GFM1 encoding the active site of EF-G1 (residues 36–751) was PCR amplified from pDONR221 constructs using primers (GGGGACAAGTTTGTACAAAAAAGCAGGCTTAATGTCTTCATCAGGGGTGATT, GGGGACCACTTTGTACAAGAAAGCTGGGTATTAGTTCTTGGCTTTTCC). P. aeroginosa fusA1 encoding full-length EF-G was PCR amplified from pET28a-PaEFG-Nhis using primers (GGGGACCACTTTGTACAAGAAAGCTGGGTATTATCAACCTTGTTTTTT, GGGGACAAGTTTGTACAAAAAAGCAGGCTTAATGGCCCGTACTACACCC). Purified PCR products were cloned into the pDONR221 vector using Gateway cloning and BP Clonase II (Invitrogen), shuttled into an E.coli protein expression vector for N-terminal tagging (Avitag-His6 vector) using LR Clonase II (Invitrogen), and verified by sequencing. Avitag-His6-hEF-G1 and Avitag-His6-PaEF-G constructs were transformed into BL21-AI cells (Invitrogen) and isolated single colonies were used to inoculate 5 ml cultures which were grown overnight at 37°C with shaking. […]. Briefly, protein was captured on column using binding buffer (50 mM Tris; pH 7.5, 300 mM NaCl, 20 mM imidazole, 10% glycerol), washed extensively with washing buffer (50 mM Tris; pH 7.5, 500 mM NaCl, 30 mM imidazole, 10% glycerol), and then eluted with elution buffer (50 mM Tris; pH 7.5, 500 mM NaCl, 250 mM imidazole, 10% glycerol). […]

[3] = tested on: cytochrome c oxidase subunit 2 (COX2); test: Immunoblot of mitochondrial-encoded COX2 in HCT116 and RKO cells; format: cell-based, human; conditions: 4 days
Description: (§1) Whole cell lysates were prepared using RIPA buffer (Cell Signaling Technology) supplemented with EDTA-free protease inhibitor cocktail (Roche Applied Science), cleared by centrifugation at 16,000× g for 10 min, normalized based on protein concentration (Bio-Rad protein assay), boiled in NuPAGE LDS sample buffer (Invitrogen) supplemented with 2% ß-mercaptoethanol, and separated on NuPAGE 4–12% Bis-Tris gels using MOPS running buffer (Invitrogen). Proteins were transferred to nitrocellulose membranes and probed with the following primary antibodies: rabbit polyclonal antibody against mEF-G1 (Sigma, HPA034765), rabbit monoclonal antibody against GAPDH (Cell Signaling Technology, 14C10), mouse monoclonal antibodies against COX2 (Invitrogen, A6404) or SDHA (MitoSciences, MS204). Immobilized primary antibodies were visualized using HRP-conjugated anti-rabbit or anti-mouse IgG (Millipore, AP307P and AP308P) and enhanced chemiluminescence (Pierce).

[4] = tested on: Cox4-GFP labeled mitochondria; test: Microscopy of mitochondrial morphology (Cox4-GFP); format: cell-based, S. cerevisiae; conditions: 3× IC30 (10 µM on YPEG), 30 minutes, ethanol/glycerol
Description: BY4741 cells containing a genomic COX4-GFP fusion where grown to mid-log phase in glucose and ethanol/glycerol media and incubated with the corresponding concentrations of compound for 30 minutes. Aliquots where spotted on microscopy slides and directly imaged on a Zeiss Axiovert 200Mot microscope equipped with a AxioCam MRm digital camera using the Plan-Neofluar 100×, 1.3 oil PH3 objective (Carl Zeiss, Feldbach, Switzerland). A z-stack consisting of 3 images spaced by […] in the filterset 38 (eGFP) channel and a phase-contrast image where acquired. False colors where applied to the GFP images (green) and phase contrast (blue) and the images merged into one plane and scaled to 8-bit. Representative, individual cells where selected and assembled into a panel using Adobe Photoshop (Adobe Systems Inc.).

[5] = tested on: succinate dehydrogenase flavoprotein subunit (SDHA); test: Immunoblot of nuclear-encoded SDHA in HCT116 and RKO cells; format: cell-based, human; conditions: 4 days
Description: as §1

Structure (SMILES): C=C1NC(=O)CN(C)C(=O)CNC(=O)[C@H](Cc2c[nH]c3cccc(OC)c23)NC(=O)[C@H](Cc2c[nH]c3ccccc23)NC(=O)c2csc(n2)[C@@H](C)NC(=O)[C@@H](CC)NC1=O [argyrin B] (cyclo([dAbu][dAla(ψthiazole)]W[Trp(4-OMe)]G[Sar][Dha]))
- Susceptibility to argyrin B (B. multivorans; B. multivorans CDA0079 (FusA1 P484R)): >32 µg/mL
- Susceptibility to argyrin B (B. multivorans; B. multivorans CDA0080 (FusA1 S415L)): >32 µg/mL
- Susceptibility to argyrin B (B. multivorans; B. multivorans CDA0093 (FusA1 S415W)): >32 µg/mL
- Susceptibility to argyrin B (B. multivorans; B. multivorans CDA0094 (FusA1 L656P)): >32 µg/mL
- Susceptibility to argyrin B (B. multivorans; B. multivorans NB49004 (clinical isolate)): 1 µg/mL
- Activity against yeast (in words) (yeast (BY4741, BYΔ8); BYΔ8 (strain CMB970, eight genes involved in efflux deleted)): inactive
- Inhibitory activity on glucose-grown yeast (in words) (yeast (BY4741, BYΔ8); glucose-grown yeast): lack of inhibitory activity
- Activity against yeast (in words) (yeast (BY4741, BYΔ8); wild-type yeast (BY4741)): inactive
- Colony formation (in words) [1]: abolished colony formation
- Binding to human mEF-G1 (in words) [2]: still bound
- COX2 protein level (in words) ([3]; HCT116, 1 µM argyrin B): depleted
- COX2 protein level (in words) ([3]; RKO, 1 µM argyrin B): depleted
- Mitochondrial morphology (in words) [4]: mitochondrial morphology defects (fragmentation)
- SDHA protein level (in words) ([5]; HCT116, 1 µM argyrin B): did not affect the levels
- SDHA protein level (in words) ([5]; RKO, 1 µM argyrin B): did not affect the levels

— PMC3438169 (PLoS ONE, 2012)
